Measured values reported in patent US6955891B2 (priority 2002, dated 2005).

Tests used:
Lethal factor = Lethal factor (Bacillus anthracis, UniProt P15917); conditions: cited from earlier work
[1] = biological target: Bacillus anthracis lethal factor (Bacillus anthracis, UniProt P15917)
Sequence of Bacillus anthracis lethal factor (P15917 34-809 limits assumed): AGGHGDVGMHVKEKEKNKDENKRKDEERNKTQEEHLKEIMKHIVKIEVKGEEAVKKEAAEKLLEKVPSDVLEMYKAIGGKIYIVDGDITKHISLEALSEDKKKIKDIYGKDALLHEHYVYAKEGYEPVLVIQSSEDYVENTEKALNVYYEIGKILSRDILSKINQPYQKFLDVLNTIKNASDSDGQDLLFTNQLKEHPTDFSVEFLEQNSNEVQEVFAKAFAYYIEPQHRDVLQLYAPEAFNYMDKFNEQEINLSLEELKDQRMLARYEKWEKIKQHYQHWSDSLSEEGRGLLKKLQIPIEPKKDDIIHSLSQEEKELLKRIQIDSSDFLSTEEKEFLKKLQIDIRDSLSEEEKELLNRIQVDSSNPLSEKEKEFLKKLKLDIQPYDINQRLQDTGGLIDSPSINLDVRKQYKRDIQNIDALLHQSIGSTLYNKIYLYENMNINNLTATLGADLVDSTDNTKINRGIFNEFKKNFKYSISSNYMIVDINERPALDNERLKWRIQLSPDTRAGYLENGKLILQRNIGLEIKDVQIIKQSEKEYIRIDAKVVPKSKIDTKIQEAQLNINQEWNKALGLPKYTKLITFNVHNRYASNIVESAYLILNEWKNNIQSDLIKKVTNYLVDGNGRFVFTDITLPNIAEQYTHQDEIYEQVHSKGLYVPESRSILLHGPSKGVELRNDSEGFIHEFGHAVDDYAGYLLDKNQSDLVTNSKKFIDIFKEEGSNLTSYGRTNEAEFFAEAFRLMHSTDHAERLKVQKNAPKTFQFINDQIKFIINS

Sequence of Lethal factor (P15917 34-809 limits assumed): as above

| Compound | effect on in vitro cleavage of synthetic peptides by lethal factor (Lethal factor) | signal/background (S/B) at 100% cleavage [1] |
| --- | --- | --- |
| c1cnc2c(c1)ccc1cccnc12 [1,10-phenanthroline] | inhibited | – |
| (Cou)NleKKKKVLP IQLNAATDK(Q-35)GG-NH2 [(Cou)Consensus(K(QSY-35)GG)-NH2] | – | largest S/B |
